In ChEMBL document CHEMBL5532664, “Discovery, Optimization, and Evaluation of Potent and Selective DNA-PK Inhibitors in Combination with Chemotherapy or Radiotherapy for the Treatment of Malignancies” (J Med Chem, 2024):
Activity calls are given as the source filed them. The rule behind the calls is not given here.

Columns and labels:
[1] = test system: HCT-116; assay: Inhibition of colony formation in human HCT-116 cells at […] preincubated with compound for 1 hr followed by exposure to 2 Gy gamma irradiation and measured after 7 days by crystal violet staining based chemiluminescence assay relative to control; format: functional; details: HCT-116, light or radiation study, dose 0.25 µM, time 169 hrs
[2] = target: DNA-dependent protein kinase catalytic subunit (Homo sapiens, UniProt P78527)
Chain of DNA-dependent protein kinase catalytic subunit (P78527 whole entry): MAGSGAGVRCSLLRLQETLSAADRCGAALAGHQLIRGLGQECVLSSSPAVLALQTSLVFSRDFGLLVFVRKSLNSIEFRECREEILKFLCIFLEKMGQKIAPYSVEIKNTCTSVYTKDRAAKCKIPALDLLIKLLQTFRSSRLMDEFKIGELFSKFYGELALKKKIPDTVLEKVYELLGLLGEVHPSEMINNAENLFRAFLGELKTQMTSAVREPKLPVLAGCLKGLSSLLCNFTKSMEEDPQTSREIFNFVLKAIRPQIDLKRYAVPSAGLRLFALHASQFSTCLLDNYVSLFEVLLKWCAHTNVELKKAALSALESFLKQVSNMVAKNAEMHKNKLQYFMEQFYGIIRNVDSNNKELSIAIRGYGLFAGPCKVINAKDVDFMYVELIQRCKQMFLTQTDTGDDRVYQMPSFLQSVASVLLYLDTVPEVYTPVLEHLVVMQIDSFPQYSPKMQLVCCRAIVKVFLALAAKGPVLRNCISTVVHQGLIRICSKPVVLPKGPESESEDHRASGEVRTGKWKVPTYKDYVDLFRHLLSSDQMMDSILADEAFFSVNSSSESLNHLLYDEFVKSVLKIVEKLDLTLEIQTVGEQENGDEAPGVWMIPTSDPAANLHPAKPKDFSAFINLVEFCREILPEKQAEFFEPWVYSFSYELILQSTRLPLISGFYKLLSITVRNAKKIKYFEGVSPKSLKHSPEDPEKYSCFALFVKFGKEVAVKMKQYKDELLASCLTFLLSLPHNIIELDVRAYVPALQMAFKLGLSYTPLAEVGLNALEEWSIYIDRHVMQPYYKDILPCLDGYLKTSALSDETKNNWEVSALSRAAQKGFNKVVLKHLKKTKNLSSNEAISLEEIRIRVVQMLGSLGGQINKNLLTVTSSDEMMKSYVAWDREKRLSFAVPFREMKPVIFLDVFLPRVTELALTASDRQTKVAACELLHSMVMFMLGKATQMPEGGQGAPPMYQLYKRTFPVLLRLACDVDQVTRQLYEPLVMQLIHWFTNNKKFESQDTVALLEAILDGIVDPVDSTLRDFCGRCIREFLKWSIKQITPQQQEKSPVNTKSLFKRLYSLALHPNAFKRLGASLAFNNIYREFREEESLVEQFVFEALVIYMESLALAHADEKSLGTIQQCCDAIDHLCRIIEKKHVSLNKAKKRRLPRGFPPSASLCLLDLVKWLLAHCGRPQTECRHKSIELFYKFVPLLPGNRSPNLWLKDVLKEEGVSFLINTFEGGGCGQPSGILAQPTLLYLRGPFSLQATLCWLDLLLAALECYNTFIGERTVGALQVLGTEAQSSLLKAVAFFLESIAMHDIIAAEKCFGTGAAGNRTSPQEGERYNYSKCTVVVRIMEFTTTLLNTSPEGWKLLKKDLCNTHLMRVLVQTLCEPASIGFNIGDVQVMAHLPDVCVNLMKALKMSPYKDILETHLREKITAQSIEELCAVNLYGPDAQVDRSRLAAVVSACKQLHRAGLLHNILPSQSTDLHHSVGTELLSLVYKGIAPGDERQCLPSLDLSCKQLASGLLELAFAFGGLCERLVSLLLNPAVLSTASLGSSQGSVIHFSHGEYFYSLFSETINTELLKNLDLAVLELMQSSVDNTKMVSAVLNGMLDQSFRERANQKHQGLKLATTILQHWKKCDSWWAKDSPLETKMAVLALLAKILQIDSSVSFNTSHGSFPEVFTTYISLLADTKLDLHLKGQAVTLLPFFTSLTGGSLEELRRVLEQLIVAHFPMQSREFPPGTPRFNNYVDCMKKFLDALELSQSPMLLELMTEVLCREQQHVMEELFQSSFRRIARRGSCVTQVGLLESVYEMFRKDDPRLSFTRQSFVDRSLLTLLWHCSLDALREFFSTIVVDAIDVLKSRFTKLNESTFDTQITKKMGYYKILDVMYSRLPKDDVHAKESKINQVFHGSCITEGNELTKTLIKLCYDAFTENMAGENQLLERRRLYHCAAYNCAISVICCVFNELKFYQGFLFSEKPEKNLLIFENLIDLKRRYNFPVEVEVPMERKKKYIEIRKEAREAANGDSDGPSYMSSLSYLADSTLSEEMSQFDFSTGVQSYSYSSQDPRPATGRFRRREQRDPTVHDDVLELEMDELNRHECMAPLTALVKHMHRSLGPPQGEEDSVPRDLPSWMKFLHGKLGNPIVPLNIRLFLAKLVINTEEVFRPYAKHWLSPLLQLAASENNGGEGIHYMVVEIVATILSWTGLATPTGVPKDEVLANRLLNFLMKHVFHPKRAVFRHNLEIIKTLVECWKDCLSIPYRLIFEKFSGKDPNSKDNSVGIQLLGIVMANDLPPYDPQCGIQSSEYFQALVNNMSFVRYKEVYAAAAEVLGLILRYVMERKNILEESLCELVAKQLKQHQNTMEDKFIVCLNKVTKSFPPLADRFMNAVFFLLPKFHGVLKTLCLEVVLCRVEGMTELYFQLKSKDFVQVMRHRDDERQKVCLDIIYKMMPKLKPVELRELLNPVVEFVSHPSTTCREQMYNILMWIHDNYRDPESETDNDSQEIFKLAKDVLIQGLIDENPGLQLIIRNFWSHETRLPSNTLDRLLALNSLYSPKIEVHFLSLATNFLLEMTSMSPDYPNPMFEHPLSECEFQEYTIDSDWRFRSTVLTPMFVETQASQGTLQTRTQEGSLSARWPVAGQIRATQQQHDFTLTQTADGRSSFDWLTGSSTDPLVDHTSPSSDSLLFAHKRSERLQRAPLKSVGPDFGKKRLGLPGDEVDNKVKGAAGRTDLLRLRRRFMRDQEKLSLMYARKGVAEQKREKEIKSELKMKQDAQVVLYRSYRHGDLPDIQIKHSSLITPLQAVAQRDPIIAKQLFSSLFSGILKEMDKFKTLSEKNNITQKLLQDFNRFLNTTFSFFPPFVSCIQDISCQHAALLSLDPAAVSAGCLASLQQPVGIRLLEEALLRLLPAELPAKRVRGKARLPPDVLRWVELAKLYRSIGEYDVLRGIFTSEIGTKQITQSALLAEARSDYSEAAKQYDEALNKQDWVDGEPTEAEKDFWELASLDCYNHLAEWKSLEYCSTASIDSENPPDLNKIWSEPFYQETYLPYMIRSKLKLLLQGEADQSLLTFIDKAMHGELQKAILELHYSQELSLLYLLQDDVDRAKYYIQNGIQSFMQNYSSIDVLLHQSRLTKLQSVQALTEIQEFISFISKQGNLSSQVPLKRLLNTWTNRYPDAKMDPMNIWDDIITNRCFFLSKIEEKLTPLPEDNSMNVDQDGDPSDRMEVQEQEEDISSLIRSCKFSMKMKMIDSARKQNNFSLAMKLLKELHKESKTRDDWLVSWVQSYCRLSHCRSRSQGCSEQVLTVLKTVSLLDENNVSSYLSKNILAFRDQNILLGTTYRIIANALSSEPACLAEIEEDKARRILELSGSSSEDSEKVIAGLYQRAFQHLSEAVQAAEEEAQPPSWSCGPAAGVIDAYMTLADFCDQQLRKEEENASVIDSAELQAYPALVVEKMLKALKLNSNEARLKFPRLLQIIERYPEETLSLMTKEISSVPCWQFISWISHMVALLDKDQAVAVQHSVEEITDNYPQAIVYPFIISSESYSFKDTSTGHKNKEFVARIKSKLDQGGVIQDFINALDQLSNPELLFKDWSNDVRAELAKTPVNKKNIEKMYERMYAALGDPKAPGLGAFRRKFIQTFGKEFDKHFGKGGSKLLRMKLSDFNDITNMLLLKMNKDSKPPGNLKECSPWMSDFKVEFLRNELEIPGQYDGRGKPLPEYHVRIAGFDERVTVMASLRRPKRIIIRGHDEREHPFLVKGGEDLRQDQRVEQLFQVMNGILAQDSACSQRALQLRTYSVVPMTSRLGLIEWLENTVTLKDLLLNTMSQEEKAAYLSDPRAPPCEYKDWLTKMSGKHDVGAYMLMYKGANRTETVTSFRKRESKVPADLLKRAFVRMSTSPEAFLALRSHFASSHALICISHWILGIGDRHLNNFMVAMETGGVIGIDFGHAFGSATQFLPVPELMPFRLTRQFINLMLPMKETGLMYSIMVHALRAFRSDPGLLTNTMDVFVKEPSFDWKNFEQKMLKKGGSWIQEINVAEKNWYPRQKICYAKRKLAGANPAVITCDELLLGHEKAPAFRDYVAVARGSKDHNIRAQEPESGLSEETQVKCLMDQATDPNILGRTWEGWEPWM
Description: Inhibition of human DNA-PK incubated for 30 mins in presence of Mg/ATP by HTRF method

[3] = in vitro; details: human, liver microsomes
[4] = in vivo; details: Sprague-Dawley, rat, po, 5 mg/kg
[5] = test system: NCI-H460; assay: Antitumor activity against human NCI-H460 cells xenografted in BALB/ c nude mouse assessed as inhibition of tumor growth at 100 mg/kg, po administered once daily with 2 Gy irradiation and measured upto 7 days by vernier caliper analysis; format: functional, organism-based; details: time <= 7.0 day
[6] = test system: HCT-116; assay: Inhibition of colony formation in human HCT-116 cells preincubated with compound for 1 hr followed by exposure to 2 Gy gamma irradiation and measured after 7 days by crystal violet staining based chemiluminescence assay; format: functional, cell-based; details: HCT-116, light or radiation study
[7] = in vivo; details: Sprague-Dawley, rat, po, 5 mg/kg; remark: listed apart in the source
[8] = in vivo; details: Sprague-Dawley, rat, po, 5 mg/kg; remark: listed apart in the source
[9] = in vivo; details: Sprague-Dawley, rat, iv, 5 mg/kg
[10] = in vivo; details: Sprague-Dawley, rat, po, 5 mg/kg; remark: listed apart in the source
[11] = in vivo; details: Sprague-Dawley, rat, iv, 5 mg/kg; remark: listed apart in the source
[12] = in vivo; details: Sprague-Dawley, rat, iv, 5 mg/kg; remark: listed apart in the source
[13] = in vivo; details: Sprague-Dawley, rat, plasma, po, 5 mg/kg
Description: Clearance in Sprague-Dawley rat plasma at 5 mg/kg, po measured upto 24 hrs by LC-MS/MS analysis

[14] = in vivo; details: Sprague-Dawley, rat, plasma, iv, 5 mg/kg
Description: Clearance in Sprague-Dawley rat plasma at 5 mg/kg, iv measured upto 24 hrs by LC-MS/MS analysis

Compound | IC50 [2] | half-life at 5 min, 1 µM [3] | inhibition at […] [1] | further results
Cc1cc(-c2ncn(C)n2)ccc1Nc1ncc2c(n1)n(C1CCOCC1)c(=O)n2C | 13 nM | – | 56.1% | –
Cc1cc(-c2cnn(C)c2)ncc1Nc1ncc2c(n1)n(C1CCN(C(=O)[C@@H]3C[C@H]3F)CC1)c(=O)n2C | – | – | 28.3% | –
Cc1cnc(-c2cnn(C)c2)cc1Nc1ncc2c(n1)n(C1CCOCC1)c(=O)n2C | – | 4.81 h | 99.4% | AUC(0-t) at 24 h [4]: 6470 ng·h/mL; Activity [5]: Active; IC50 [6]: 27.5 nM; bioavailability at 24 h [7]: 88.5%; Cmax at 24 h [8]: 406 ng/mL; Cmax at 24 h [9]: 1320 ng/mL; half-life at 24 h [10]: 11.6 h; half-life at 24 h [11]: 7.08 h; AUC(0-t) at 24 h [12]: 7300 ng·h/mL; CL/F at 24 h [13]: 16 mL/min/kg; clearance at 24 h [14]: 11.7 mL/min/kg
Cc1cc(-c2cccc(S(C)(=O)=O)c2)ncc1Nc1ncc2c(n1)n(C1CCOCC1)c(=O)n2C | – | – | 19.3% | –
Cc1ccc(-c2cnn(C)c2)cc1Nc1ncc2c(n1)n(C1CCOCC1)c(=O)n2C | 2 nM | 3.04 h | 98% | –
Cc1cc(-c2cnn(C)c2)ncc1Nc1ncc2c(n1)n([C@H]1CCOC1)c(=O)n2C | 6 nM | 28.9 h | 90.7% | –
Cc1cc(-c2cnn(C(C)C)c2)ncc1Nc1ncc2c(n1)n(C1CCOCC1)c(=O)n2C | – | – | 12.6% | –
Cn1c(=O)n(C2CCOCC2)c2nc(N3CCc4cc(C(F)(F)F)ccc43)ncc21 | – | – | 41% | –
Cc1cc(-c2ccc3c(c2)OCCO3)ncc1Nc1ncc2c(n1)n(C1CCOCC1)c(=O)n2C | – | – | 60% | –
Cc1cc(-c2ccco2)ncc1Nc1ncc2c(n1)n(C1CCOCC1)c(=O)n2C | – | – | 99.7% | –
Cc1cc(-c2cnn(C)c2)ncc1Nc1ncc2c(n1)n(C1CCN(S(=O)(=O)C(F)(F)F)CC1)c(=O)n2C | 5 nM | – | 86.7% | –
COc1ccc(-c2ccc(Nc3ncc4c(n3)n(C3CCOCC3)c(=O)n4C)c(C)n2)cc1OC | – | – | 28.3% | –
COc1cncc(-c2ccc(Nc3ncc4c(n3)n(C3CCOCC3)c(=O)n4C)c(C)n2)c1 | 5.3 nM | – | – | –
Cc1cc(-c2cnn(C)c2)ncc1Nc1ncc2c(n1)n(C1CCN(S(C)(=O)=O)CC1)c(=O)n2C | 1 nM | – | 30.4% | –
Cc1cc(-c2cnn(C)c2C)ncc1Nc1ncc2c(n1)n(C1CCOCC1)c(=O)n2C | – | – | 28% | –
Cc1cc(-c2cnn(C)c2)ncc1Nc1ncc2c(n1)n([C@@]13C[C@@H]4C[C@@](C)(C[C@@](C)(C4)C1)C3)c(=O)n2C | – | 0.0373 h | 83.9% | –
Cc1cc(-c2cn(C)nc2C)ncc1Nc1ncc2c(n1)n(C1CCOCC1)c(=O)n2C | 6 nM | 128 h | 77.4% | –
Cn1c(=O)n(C2CCOCC2)c2nc(N3CCc4cc(S(C)(=O)=O)ccc43)ncc21 | – | – | 5.8% | –
Cc1cc(-c2cnoc2)ncc1Nc1ncc2c(n1)n(C1CCOCC1)c(=O)n2C | – | – | 32.8% | –
Cc1cc(-c2cnn(C)c2)ncc1Nc1ncc2c(n1)n(CC1CCOCC1)c(=O)n2C | – | – | 42.8% | –

Compound | IC50 [2] | half-life at 5 min, 1 µM [3] | inhibition at […] [1] | further results
COc1cc(-c2cc(C)c(Nc3ncc4c(n3)n(C3CCOCC3)c(=O)n4C)cn2)cc(OC)c1OC | – | – | -11.4% | –
Cn1c(=O)n(C2CCOCC2)c2nc(N3CCc4ccc([N+](=O)[O-])cc43)ncc21 | – | – | 12.5% | –
Cc1cc(-c2cnn(C3CC3)c2)ncc1Nc1ncc2c(n1)n(C1CCOCC1)c(=O)n2C | – | – | 63.3% | –
Cc1nc(-c2cnn(C)c2)ncc1Nc1ncc2c(n1)n(C1CCOCC1)c(=O)n2C | – | – | 63.2% | –
COc1ncc(-c2cc(C)c(Nc3ncc4c(n3)n(C3CCOCC3)c(=O)n4C)cn2)cn1 | – | – | 34% | –
Cc1cc(-c2cnn(C)c2)ncc1Nc1ncc2c(n1)n(C1CC1)c(=O)n2C | – | – | 53.1% | –
Cn1c(=O)n(C2CCOCC2)c2nc(N3CCc4ccccc43)ncc21 | – | 1.2 h | -11.6% | –
Cc1cc(-c2cncnc2)ncc1Nc1ncc2c(n1)n(C1CCOCC1)c(=O)n2C | – | – | 22.9% | –
Cn1c(=O)n(C2CCOCC2)c2nc(Nc3ccc(-c4ccc5c(c4)OCO5)nc3)ncc21 | – | – | 85.8% | –
Cc1cc(-c2cnn(C)c2)cnc1Nc1ncc2c(n1)n(C1CCOCC1)c(=O)n2C | – | – | -0.2% | –
Cc1cc(-c2c(C)noc2C)ncc1Nc1ncc2c(n1)n(C1CCOCC1)c(=O)n2C | – | – | 25% | –
CC(=O)N1CCC(n2c(=O)n(C)c3cnc(Nc4cnc(-c5cnn(C)c5)cc4C)nc32)CC1 | 1 nM | – | 14.7% | –
Cc1cc(-c2cnn(C)c2)ncc1Nc1ncc2c(n1)n(C1CCN(C(=O)C3CC3(F)F)CC1)c(=O)n2C (stereo not drawn) | 12 nM | – | 47.3% | –
Cc1cc(-c2cccnc2)ncc1Nc1ncc2c(n1)n(C1CCOCC1)c(=O)n2C | – | – | 97.4% | –
Cc1cc(-c2cnn(C)c2)ccc1Nc1ncc2c(n1)n(C1CCOCC1)c(=O)n2C | – | – | 58.5% | –
Cn1c(=O)n(C2CCOCC2)c2nc(N3CCc4cc(F)c(F)cc43)ncc21 | – | – | 8.2% | –
Cc1cc(-c2c(C)nn(C)c2C)ncc1Nc1ncc2c(n1)n(C1CCOCC1)c(=O)n2C | – | – | 22.9% | –
COc1cc2c(cc1OC)N(c1ncc3c(n1)n(C1CCOCC1)c(=O)n3C)CC2 | – | – | 89.8% | –
Cc1cc(-c2cnn(C)c2)ncc1Nc1ncc2c(n1)n(C1CCN(C(=O)C3CC3)CC1)c(=O)n2C | 3 nM | – | 66.9% | –
Cc1nc(-c2cnn(C)c2)ccc1Nc1ncc2c(n1)n(C1CCOCC1)c(=O)n2C | – | – | 23.3% | –

The next lines start with results.

IC50 [2] | half-life at 5 min, 1 µM [3] | Compound | inhibition at […] [1] | further results
13 nM | 0.352 h | Cn1c(=O)n(C2CCOCC2)c2nc(N3CCc4cc(C#N)ccc43)ncc21 | 84.7% | –
161 nM | – | COc1ccc(-c2ccc(Nc3ncc4c(n3)n(C3CCOCC3)c(=O)n4C)c(C)n2)cn1 | 29.9% | –
9 nM | – | Cc1cc(-c2cnn(C)c2)ncc1Nc1ncc2c(n1)n(C1CCCCC1C)c(=O)n2C (stereo not drawn) | 86.7% | –
0.9 nM | – | Cc1cc(-c2cnn(C)c2)ncc1Nc1ncc2c(n1)n(C1CCNCC1)c(=O)n2C | 46.8% | –
4 nM | 1.99 h | Cc1cc(-c2cn(C)nc2C(F)(F)F)ncc1Nc1ncc2c(n1)n(C1CCOCC1)c(=O)n2C | 63.9% | –
0.4 nM | 0.963 h | Cc1cc(-c2cn[nH]c2)ncc1Nc1ncc2c(n1)n(C1CCOCC1)c(=O)n2C | 86.7% | –
10 nM | – | Cc1ncc(-c2cnn(C)c2)cc1Nc1ncc2c(n1)n(C1CCOCC1)c(=O)n2C | 74.3% | –
9.6 nM | – | Cc1nc(-c2ccnn2C)ccc1Nc1ncc2c(n1)n(C1CCOCC1)c(=O)n2C | – | –
6 nM | 0.138 h | COc1ccc2c(c1)CCN2c1ncc2c(n1)n(C1CCOCC1)c(=O)n2C | 86.1% | –
1 nM | – | CC(=O)c1ccc2c(c1)CCN2c1ncc2c(n1)n(C1CCOCC1)c(=O)n2C | 32.6% | –
2 nM | 3.04 h | Cc1cc(-c2cnn(C)c2)ncc1Nc1ncc2c(n1)n(C1CCN(S(=O)(=O)C3CC3)CC1)c(=O)n2C | 84.9% | –
25 nM | 1.2 h | Cc1nc(-c2cn[nH]c2)ccc1Nc1ncc2c(n1)n(C1CCOCC1)c(=O)n2C | 27.7% | –
0.8 nM | 2.51 h | Cc1cc(-c2ccsc2)ncc1Nc1ncc2c(n1)n(C1CCOCC1)c(=O)n2C | 99.8% | Activity [5]: Active; IC50 [6]: 3.76 nM
– | 0.642 h | Cc1ccc(-c2cc(C)c(Nc3ncc4c(n3)n(C3CCOCC3)c(=O)n4C)cn2)o1 | 76.7% | –
8 nM | 14.4 h | Cc1cc(-c2ccnn2C)ncc1Nc1ncc2c(n1)n(C1CCOCC1)c(=O)n2C | 95% | –
– | 0.213 h | Cc1cc(-c2ccoc2)ncc1Nc1ncc2c(n1)n(C1CCOCC1)c(=O)n2C | 99.8% | –
– | 0.235 h | Cc1cc(-c2coc(C=O)c2)ncc1Nc1ncc2c(n1)n(C1CCOCC1)c(=O)n2C | 96.9% | –
8 nM | 2.51 h | Cn1cc(-c2ccc3c(c2)CCN3c2ncc3c(n2)n(C2CCOCC2)c(=O)n3C)cn1 | 97.6% | –
0.1 nM | 1.96 h | Cc1cc(-c2cccs2)ncc1Nc1ncc2c(n1)n(C1CCOCC1)c(=O)n2C | 97.9% | AUC(0-t) at 24 h [4]: 277 ng·h/mL; Activity [5]: Active; IC50 [6]: 15.2 nM; bioavailability at 24 h [7]: 99.6%; Cmax at 24 h [8]: 23.8 ng/mL; Cmax at 24 h [9]: 23.3 ng/mL; half-life at 24 h [10]: 7.34 h; half-life at 24 h [11]: 3.45 h; AUC(0-t) at 24 h [12]: 278 ng·h/mL; CL/F at 24 h [13]: 204 mL/min/kg; clearance at 24 h [14]: 306 mL/min/kg
5 nM | – | COC(=O)c1ccc2c(c1)CCN2c1ncc2c(n1)n(C1CCOCC1)c(=O)n2C | 48.1% | –
